# Laboratory results reported in patent publication US12077503B2, “Substituted cyclic amides and their use as herbicides” (FMC CORPORATION, priority 2015, dated 2024).
# What was measured:
# Assay type in all cases: in vivo
# [1] = tested on: redroot pigweed (Amaranthus retroflexus); assay: Test G Post-Emergence Protocol; settings: Amaranthus retroflexus, post-emergence, 312 h, read-out: Pigweed, Redroot damage rating; for pest or weed control at 15.625 g/ha: 15.625 g ai/ha, evaluated after 13 days (100=total damage to plant; 0=no damage to plant); for pest or weed control at 62.5 g/ha: 62.5 g ai/ha; for pest or weed control at 62.5 g/ha / pest or weed control at 250 g/ha: evaluated after 13 days, 100=total damage to plant, 0=no damage to plant; for pest or weed control at 250 g/ha: 250 g ai/ha
# Method in brief: (§1)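 Scores run 0 (no damage) to 100 (total damage) and were taken 13 days after spraying. Plants had been raised in pots for 8 days under glasshouse control (24/16 °C, 14 h photoperiod, 65% humidity) and then treated at 15.625, 62.5 or 250 g/ha.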
# corn (Zea mays) [2] = assay: Test G Post-Emergence Protocol; settings: Zea mays, post-emergence, 312 h, read-out: Corn damage rating; for plant injury at 15.625 g/ha: 15.625 g ai/ha, evaluated after 13 days (100=total damage to plant; 0=no damage to plant); for plant injury at 62.5 g/ha: 62.5 g ai/ha; for plant injury at 62.5 g/ha / plant injury at 250 g/ha: evaluated after 13 days, 100=total damage to plant, 0=no damage to plant; for plant injury at 250 g/ha: 250 g ai/ha
# Method in brief: as §1
# [3] = tested on: barnyardgrass (Echinochloa crus-galli); assay: Test G Post-Emergence Protocol; settings: Echinochloa crus-galli, post-emergence, 312 h, read-out: Barnyardgrass damage rating; for pest or weed control at 15.625 g/ha: 15.625 g ai/ha, evaluated after 13 days (100=total damage to plant; 0=no damage to plant); for pest or weed control at 62.5 g/ha: 62.5 g ai/ha; for pest or weed control at 62.5 g/ha / pest or weed control at 250 g/ha: evaluated after 13 days, 100=total damage to plant, 0=no damage to plant; for pest or weed control at 250 g/ha: 250 g ai/ha
# Method in brief: as §1
# [4] = tested on: velvetleaf (Abutilon theophrasti); assay: Test G Post-Emergence Protocol; settings: Abutilon theophrasti, post-emergence, 312 h, read-out: Velvetleaf damage rating; for pest or weed control at 15.625 g/ha: 15.625 g ai/ha, evaluated after 13 days (100=total damage to plant; 0=no damage to plant); for pest or weed control at 62.5 g/ha: 62.5 g ai/ha; for pest or weed control at 62.5 g/ha / pest or weed control at 250 g/ha: evaluated after 13 days, 100=total damage to plant, 0=no damage to plant; for pest or weed control at 250 g/ha: 250 g ai/ha
# Method in brief: as §1
# [5] = tested on: ivy-leaved morning glory (Ipomoea hederacea); assay: Test G Post-Emergence Protocol; settings: Ipomoea, post-emergence, 312 h, read-out: Morningglory, Ivy-leaved damage rating; for pest or weed control at 15.625 g/ha: 15.625 g ai/ha, evaluated after 13 days (100=total damage to plant; 0=no damage to plant); for pest or weed control at 62.5 g/ha: 62.5 g ai/ha; for pest or weed control at 62.5 g/ha / pest or weed control at 250 g/ha: evaluated after 13 days, 100=total damage to plant, 0=no damage to plant; for pest or weed control at 250 g/ha: 250 g ai/ha
# Method in brief: as §1
# [6] = tested on: giant foxtail (Setaria faberi); assay: Test G Post-Emergence Protocol; settings: Setaria faberi, post-emergence, 312 h, read-out: Foxtail, Giant damage rating; for pest or weed control at 15.625 g/ha: 15.625 g ai/ha, evaluated after 13 days (100=total damage to plant; 0=no damage to plant); for pest or weed control at 62.5 g/ha: 62.5 g ai/ha
# Method in brief: as §1
# [7] = tested on: redroot pigweed (Amaranthus retroflexus); assay: Test G Pre-Emergence Protocol; settings: Amaranthus retroflexus, pre-emergence, 312 h, evaluated after 13 days; for pest or weed control at 15.625 g/ha: 15.625 g ai/ha; for pest or weed control at 15.625 g/ha / pest or weed control at 250 g/ha: read-out: Pigweed, Redroot damage rating (100=total damage to plant; 0=no damage to plant); for pest or weed control at 62.5 g/ha: 62.5 g ai/ha, 100=total damage to plant, 0=no damage to plant, read-out: Pigweed, Redroot damage rating; for pest or weed control at 250 g/ha: 250 g ai/ha
# Method in brief: (§2)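 Scores are visual damage ratings from 0 (no damage) to 100 (total plant kill), taken 13 days after treatment. Compound was sprayed one day post-sowing at 15.625, 62.5 or 250 g/ha in 50:50 acetone/water with 0.5% Tween 20.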
# corn (Zea mays) [8] = assay: Test G Pre-Emergence Protocol; settings: Zea mays, pre-emergence, 312 h, evaluated after 13 days; for plant injury at 15.625 g/ha: 15.625 g ai/ha; for plant injury at 15.625 g/ha / plant injury at 250 g/ha: read-out: Corn damage rating (100=total damage to plant; 0=no damage to plant); for plant injury at 62.5 g/ha: 62.5 g ai/ha, 100=total damage to plant, 0=no damage to plant, read-out: Corn damage rating; for plant injury at 250 g/ha: 250 g ai/ha
# Method in brief: as §2
# [9] = tested on: barnyardgrass (Echinochloa crus-galli); assay: Test G Pre-Emergence Protocol; settings: Echinochloa crus-galli, pre-emergence, 312 h, evaluated after 13 days; for pest or weed control at 15.625 g/ha: 15.625 g ai/ha; for pest or weed control at 15.625 g/ha / pest or weed control at 250 g/ha: read-out: Barnyardgrass damage rating (100=total damage to plant; 0=no damage to plant); for pest or weed control at 62.5 g/ha: 62.5 g ai/ha, 100=total damage to plant, 0=no damage to plant, read-out: Barnyardgrass damage rating; for pest or weed control at 250 g/ha: 250 g ai/ha
# Method in brief: as §2
# [10] = tested on: velvetleaf (Abutilon theophrasti); assay: Test G Pre-Emergence Protocol; settings: Abutilon theophrasti, pre-emergence, 312 h, evaluated after 13 days; for pest or weed control at 15.625 g/ha: 15.625 g ai/ha; for pest or weed control at 15.625 g/ha / pest or weed control at 250 g/ha: read-out: Velvetleaf damage rating (100=total damage to plant; 0=no damage to plant); for pest or weed control at 62.5 g/ha: 62.5 g ai/ha, 100=total damage to plant, 0=no damage to plant, read-out: Velvetleaf damage rating; for pest or weed control at 250 g/ha: 250 g ai/ha
# Method in brief: as §2
# [11] = tested on: ivy-leaved morning glory (Ipomoea hederacea); assay: Test G Pre-Emergence Protocol; settings: Ipomoea, pre-emergence, 312 h, evaluated after 13 days; for pest or weed control at 15.625 g/ha: 15.625 g ai/ha; for pest or weed control at 15.625 g/ha / pest or weed control at 250 g/ha: read-out: Morningglory, Ivy-leaved damage rating (100=total damage to plant; 0=no damage to plant); for pest or weed control at 62.5 g/ha: 62.5 g ai/ha, 100=total damage to plant, 0=no damage to plant, read-out: Morningglory, Ivy-leaved damage rating; for pest or weed control at 250 g/ha: 250 g ai/ha
# Method in brief: as §2
# [12] = tested on: giant foxtail (Setaria faberi); assay: Test G Pre-Emergence Protocol; settings: Setaria faberi, pre-emergence, 312 h, evaluated after 13 days; for pest or weed control at 15.625 g/ha: 15.625 g ai/ha; for pest or weed control at 15.625 g/ha / pest or weed control at 250 g/ha: read-out: Foxtail, Giant damage rating (100=total damage to plant; 0=no damage to plant); for pest or weed control at 62.5 g/ha: 62.5 g ai/ha, 100=total damage to plant, 0=no damage to plant, read-out: Foxtail, Giant damage rating; for pest or weed control at 250 g/ha: 250 g ai/ha
# Method in brief: as §2
# [13] = evaluated after 13 days, 100=total damage to plant, 0=no damage to plant
Structure (SMILES),pest or weed control at 15.625 g/ha [1] [%],pest or weed control at 62.5 g/ha [1] [%],pest or weed control at 250 g/ha [1] [%],plant injury at 15.625 g/ha (corn (Zea mays) [2]) [%],plant injury at 62.5 g/ha (corn (Zea mays) [2]) [%],plant injury at 250 g/ha (corn (Zea mays) [2]) [%],pest or weed control at 15.625 g/ha [3] [%],pest or weed control at 62.5 g/ha [3] [%],pest or weed control at 250 g/ha [3] [%],pest or weed control at 15.625 g/ha [4] [%],pest or weed control at 62.5 g/ha [4] [%],pest or weed control at 250 g/ha [4] [%],pest or weed control at 15.625 g/ha [5] [%],pest or weed control at 62.5 g/ha [5] [%],pest or weed control at 250 g/ha [5] [%],pest or weed control at 15.625 g/ha [6] [%],"pest or weed control at 62.5 g/ha [6, 13] [%]",pest or weed control at 15.625 g/ha [7] [%],pest or weed control at 62.5 g/ha [7] [%],pest or weed control at 250 g/ha [7] [%],other results
CN1C[C@H](c2cc(F)cc(F)c2)[C@@H](C(=O)Nc2cnccc2C(F)(F)F)C1=O (racemic) [Compound 1741],0,0,0,0,0,0,0,0,70,0,0,10,0,30,10,50,80,10,20,30,plant injury at 15.625 g/ha (corn (Zea mays) [8]): 0%; plant injury at 62.5 g/ha (corn (Zea mays) [8]): 10%; plant injury at 250 g/ha (corn (Zea mays) [8]): 30%; pest or weed control at 15.625 g/ha [9]: 0%; pest or weed control at 62.5 g/ha [9]: 40%; pest or weed control at 250 g/ha [9]: 70%; pest or weed control at 15.625 g/ha [10]: 0%; pest or weed control at 62.5 g/ha [10]: 30%; pest or weed control at 250 g/ha [10]: 60%; pest or weed control at 15.625 g/ha [11]: 0%; pest or weed control at 62.5 g/ha [11]: 0%; pest or weed control at 250 g/ha [11]: 0%; pest or weed control at 15.625 g/ha [12]: 0%; pest or weed control at 62.5 g/ha [12]: 90%; pest or weed control at 250 g/ha [12]: 90%
CN1C[C@H](c2cccc(C(F)(F)F)c2)[C@@H](C(=O)Nc2cnccc2F)C1=O (racemic) [Compound 1745],0,0,20,0,0,0,10,70,80,0,0,0,0,30,40,10,60,0,0,20,"pest or weed control at 250 g/ha ([6]; 250 g ai/ha, evaluated after 13 days, 100=total damage to plant, 0=no damage to plant): 70%; plant injury at 15.625 g/ha (corn (Zea mays) [8]): 0%; plant injury at 62.5 g/ha (corn (Zea mays) [8]): 0%; plant injury at 250 g/ha (corn (Zea mays) [8]): 0%; pest or weed control at 15.625 g/ha [9]: 0%; pest or weed control at 62.5 g/ha [9]: 0%; pest or weed control at 250 g/ha [9]: 60%; pest or weed control at 15.625 g/ha [10]: 0%; pest or weed control at 62.5 g/ha [10]: 0%; pest or weed control at 250 g/ha [10]: 0%; pest or weed control at 15.625 g/ha [11]: 0%; pest or weed control at 62.5 g/ha [11]: 0%; pest or weed control at 250 g/ha [11]: 10%; pest or weed control at 15.625 g/ha [12]: 0%; pest or weed control at 62.5 g/ha [12]: 10%; pest or weed control at 250 g/ha [12]: 50%"
